Source: US12509437B2, “Substituted thiophene carboxamides and derivatives thereof as microbicides” (Bayer Aktiengesellschaft, priority 2019, dated 2025)
Like-named read-outs stand apart in the source and are kept apart here.

Experiments:
[1] = system: Colletotrichum lindemuthianum; experiment: In vivo preventive test on Colletotrichum lindemuthianum (Anthracnose on bean); conditions: Colletotrichum lindemuthianum, 144 h, sprayed 72 hours before inoculation, evaluated 6 days after inoculation, read-out: efficacy
Procedure: (§1) The tested active ingredients were prepared by homogenization in a mixture of acetone/Dimethyl sulfoxide/Tween®, and then diluted with water to obtain the desired active material concentration.
(§2) The young plants of bean were treated by spraying the active ingredient prepared as described above. Control plants were treated only with an aqueous solution of acetone/Dimethyl sulfoxide/Tween®.
After 72 hours, the plants were contaminated by spraying the leaves with an aqueous suspension of Colletotrichum lindemuthianum spores. The contaminated bean plants were incubated for 24 hours at 20° C. and at 100% relative humidity and then for 5 days at 20° C. and at 90% relative humidity.
The test was evaluated 6 days after the inoculation. 0% means an efficacy which corresponds to that of the control plants while an efficacy of 100% means that no disease was observed.

[2] = system: Peronospora parasitica; experiment: In vivo preventive test on Peronospora parasitica (Crucifer downy mildew) on cabbage; conditions: Hyaloperonospora parasitica, 120 h, sprayed 72 hours before inoculation, evaluated 5 days after inoculation, read-out: efficacy; for pest or weed control at 125 ppm: 125 ppm of active ingredient; for pest or weed control at 500 ppm: 500 ppm of active ingredient; for pest or weed control at 31 ppm: 31 ppm of active ingredient
Procedure: as §1
(§3) The young plants of cabbage were treated by spraying the active ingredient prepared as described above. Control plants were treated only with an aqueous solution of acetone/Dimethyl sulfoxide/Tween®.
After 72 hours, the plants were contaminated by spraying the leaves with an aqueous suspension of Peronospora parasitica spores. The contaminated cabbage plants were incubated for 5 days at 20° C. and at 100% relative humidity.
The test was evaluated 5 days after the inoculation. 0% means an efficacy which corresponds to that of the control plants while an efficacy of 100% means that no disease was observed.

[3] = system: Xanthomonas campestris pv. campestris; experiment: In vivo preventive test on Xanthomonas campestris pv. campestris (black rot on cabbage); conditions: Xanthomonas campestris, sprayed 72 hours before inoculation, evaluated 8 or 10 days after inoculation, read-out: efficacy; for pest or weed control at 500 ppm: 500 ppm of active ingredient
Procedure: as §1, §3
After 72 hours, the plants were contaminated by spraying the leaves with an aqueous bacteria suspension of Xanthomonas campestris pv. campestris. The contaminated cabbage plants were incubated for 8 or 10 days at 27° C. at 95% relative humidity.
The test was evaluated 8 or 10 days after the inoculation. 0% means an efficacy which corresponds to that of the control plants while an efficacy of 100% means that no disease was observed.

[4] = system: Uromyces appendiculatus; experiment: In vivo preventive test on Uromyces appendiculatus (bean rust); conditions: 240 h, sprayed 72 hours before inoculation, evaluated 10 days after inoculation, read-out: efficacy; for pest or weed control at 31 ppm: 31 ppm of active ingredient; for pest or weed control at 500 ppm: 500 ppm of active ingredient; for pest or weed control at 125 ppm: 125 ppm of active ingredient
Procedure: as §1, §2
After 72 hours, the plants were contaminated by spraying the leaves with an aqueous suspension of Uromyces appendiculatus spores. The contaminated bean plants were incubated for 24 hours at 20° C. and at 100% relative humidity and then for 9 days at 20° C. and at 70-80% relative humidity.
The test was evaluated 10 days after the inoculation. 0% means an efficacy which corresponds to that of the control plants while an efficacy of 100% means that no disease was observed.

[5] = LogP by HPLC on reversed phase columns (EEC directive 79/831 Annex V.A8); type: physicochemical; conditions: reversed phase HPLC columns
Procedure: [table] If more than one Log P value is available within the same method, all the values are given and separated by “+”. Calibration was done with straight-chain alkan2-ones (with 3 to 16 carbon atoms) with known Log P values (measurement of Log P values using retention times with linear interpolation between successive alkanones). Lambda-max-values were determined using UV-spectra from 200 nm to 400 nm and the peak values of the chromatographic signals.

[6] = system: Alternaria alternata; experiment: Alternaria alternata in vitro cell test; type: cell-based; conditions: 120 h, 5 days incubation, read-out: efficacy (inhibition of fungal growth; no direct activity); for inhibition at 5 ppm: 5 ppm of active ingredient; for inhibition at 20 ppm: 20 ppm of active ingredient
Procedure: (§4) • Solvent: DMSO • Culture medium: 14.6 g anhydrous D-glucose (VWR), 7.1 g Mycological Peptone (Oxoid), 1.4 g granulated Yeast Extract (Merck), QSP 1 liter • Inoculum: spores suspension Fungicides were solubilized in DMSO and the solution used to prepare the required range of concentrations. The final concentration of DMSO used in the assay was ≤[…]1%. A spore suspension of A. alternata was prepared and diluted to the desired spore density. Fungicides were evaluated for their ability to inhibit spore germination and mycelium growth in liquid culture assay. The compounds were added in the desired concentration to the culture medium with spores. After 5 days incubation, fungi-toxicity of compounds was determined by spectrometric measurement of mycelium growth. Inhibition of fungal growth was determined by comparing the absorbance values in wells containing the fungicides with the absorbance in control wells without fungicides.

[7] = system: Colletotrichum lindemuthianum; experiment: Colletotrichum lindemuthianum in vitro cell test; type: cell-based; conditions: 144 h, 6 days incubation, read-out: efficacy (inhibition of fungal growth; no direct activity); for inhibition at 5 ppm: 5 ppm of active ingredient; for inhibition at 20 ppm: 20 ppm of active ingredient
Procedure: as §4, with “of C. lindemuthianum” for “of A. alternata”, “inhibit spores” for “inhibit spore”, “After 6” for “After 5”

[8] = system: Xanthomonas campestris pv. campestris; experiment: Xanthomonas campestris pv. campestris in vitro cell test; type: cell-based; conditions: 24 h of incubation, read-out: efficacy (inhibition of bacteria growth; no direct activity); for inhibition at 5 ppm: 5 ppm of active ingredient; for inhibition at 20 ppm: 20 ppm of active ingredient
Procedure: (§5) • Solvent: DMSO • Culture medium: LB broth medium (Luria Broth Miller) Sigma • Inoculum: bacteria suspension Compounds were solubilized in DMSO and the solution used to prepare the required range of concentrations. The final concentration of DMSO used in the assay was ≤1%. Inoculum was prepared from a pre-culture of bacteria grown in liquid medium and diluted to the desired optical density (OD). Compounds were evaluated for their ability to inhibit bacteria growth in liquid culture assay. The compounds were added in the desired concentrations to culture medium containing the bacteria suspension. After 24 h of incubation, the efficacy of compounds was determined by spectrometric measurement of bacteria growth. Inhibition was determined by comparing the absorbance values in wells containing the compounds with the absorbance in control wells without active ingredients.

[9] = system: Pseudomonas syringae pv. tomato; experiment: Pseudomonas syringae pv. tomato in vitro cell test; type: cell-based; conditions: 20 ppm of active ingredient, 24 h of incubation, read-out: efficacy (inhibition of bacteria growth; no direct activity)
Procedure: as §5

[10] = system: salicylate responsive promoter sequence of the PR1 (pathogenesis-related protein I) gene (AT2G14610); experiment: Induction of defense gene expression in Arabidopsis thaliana (PR1 promoter-GFP reporter plants); type: in vivo; conditions: 72 h, 3rd day after spraying, mock treated leaves set as 1.00, read-out: relative fluorescence value
Procedure: Arabidopsis thaliana reporter plants containing the coding sequence of a green fluorescent protein (GFP) linked to the salicylate responsive promoter sequence of the PR1 (pathogenesis-related protein I) gene (AT2G14610) were grown for five days and then sprayed with compounds. On the 3rd day after spraying, plant fluorescence was assessed with a MacroFluo instrument from Leica Microsystems (Wetzlar, Germany). Fluorescences were quantified with the Meta-Morph Microscopy Automation & Image Analysis Software (Molecular Devices, Sunnyvale, Calif., United States). Background fluorescence in mock treated leaves was set as 1.00.

[11] = preparation examples, method not indicated, read-out: Log P

In the case of COC(=O)C1(NC(=O)c2cc(Cl)c(Cl)s2)CC1 [CMP4, reference compound], the pest or weed control at 31 ppm ([1]; 31 ppm of active ingredient) is reported as 0%, the pest or weed control at 125 ppm ([1]; 125 ppm of active ingredient) is reported as < 40% and the pest or weed control at 125 ppm [2] is reported as 0%. For the same molecule, the pest or weed control at 500 ppm [2] was 0%, the pest or weed control at 31 ppm ([3]; 31 ppm of active ingredient) was 0% and the pest or weed control at 500 ppm [3] was 0%. The pest or weed control at 31 ppm [4] was < 40%.
With COC(=O)C1(NC(=O)c2sc(Br)c(Br)c2C)CCC(F)(F)CC1 [I.005] the chromatographic logP ([5]; method [a]) was 3.83, the pest or weed control at 500 ppm [4] was 90 to 100% and the inhibition at 5 ppm [6] was ≤ 30%. The inhibition at 20 ppm [6] was ≤ 30%, the inhibition at 5 ppm [7] was ≤ 30% and the inhibition at 5 ppm [8] was ≤ 30%. For the same molecule, the inhibition at 20 ppm [8] was ≤ 30% and the inhibition at 20 ppm [9] was ≤ 30%.
For COC(=O)C1(NC(=O)c2sc(Br)c(Br)c2C)CSC1 [I.015], the chromatographic logP ([5]; method [a]) was 3.31, the fold induction at 75 ppm [10] was > 2 and the fold induction at 300 ppm [10] was > 2. The pest or weed control at 31 ppm [2] was 90 to 100%, the pest or weed control at 125 ppm [2] was 90 to 100% and the pest or weed control at 500 ppm [2] was 90 to 100%. For the same molecule, the pest or weed control at 31 ppm [4] was 90 to 100%, the pest or weed control at 500 ppm [4] was 90 to 100% and the inhibition at 5 ppm [6] was ≤ 30%. For the same molecule, the inhibition at 5 ppm [7] was ≤ 30%, the inhibition at 20 ppm [7] was ≤ 30% and the inhibition at 5 ppm [8] was ≤ 30%. The inhibition at 20 ppm [8] was ≤ 30% and the inhibition at 20 ppm [9] was ≤ 30%.
For CCOC(=O)C(CC(N)=O)NC(=O)c1sc(Br)c(Br)c1C (centres unmarked) [I.016], the chromatographic logP ([5]; method [a]) was 2.26, the fold induction at 75 ppm [10] was > 2 and the fold induction at 300 ppm [10] was > 2. For the same molecule, the pest or weed control at 31 ppm [2] was 90 to 100%, the pest or weed control at 125 ppm [2] was 90 to 100% and the pest or weed control at 500 ppm [2] was 90 to 100%. It also gave a pest or weed control at 31 ppm [4] of 90 to 100%, a pest or weed control at 125 ppm [4] of 90 to 100% and a pest or weed control at 500 ppm [4] of 80 to 89%. The inhibition at 5 ppm [6] was ≤ 30%, the inhibition at 20 ppm [6] was ≤ 30% and the inhibition at 5 ppm [7] was ≤ 30%. The inhibition at 20 ppm [7] was ≤ 30%, the inhibition at 5 ppm [8] was ≤ 30% and the inhibition at 20 ppm [8] was ≤ 30%. The inhibition at 20 ppm [9] was ≤ 30%.
In the case of CCOC(=O)C1(NC(=O)CNC(=O)c2sc(Br)c(Br)c2C)CC1 [I.024, ethyl 1-({N-[(4,5-dibromo-3-methyl-2-thienyl)carbonyl]glycyl}amino)cyclopropanecarboxylate], the chromatographic logP [5, 11] is reported as 2.55, the fold induction at 75 ppm [10] is reported as > 2 and the inhibition at 5 ppm [6] is reported as ≤ 30%. For the same molecule, the inhibition at 20 ppm [6] was ≤ 30%, the inhibition at 5 ppm [7] was ≤ 30% and the inhibition at 20 ppm [7] was ≤ 30%. The inhibition at 5 ppm [8] was ≤ 30%, the inhibition at 20 ppm [8] was ≤ 30% and the inhibition at 20 ppm [9] was ≤ 30%.
For CCOC(=O)C(COC)NC(=O)c1sc(Br)c(Br)c1C (centres unmarked) [I.034], the chromatographic logP ([5]; method [a]) was 3.46, the fold induction at 300 ppm [10] was > 2 and the pest or weed control at 500 ppm [3] was 80 to 89%. The pest or weed control at 500 ppm [4] was 90 to 100%, the inhibition at 5 ppm [6] was ≤ 30% and the inhibition at 20 ppm [6] was ≤ 30%. For the same molecule, the inhibition at 5 ppm [7] was ≤ 30%, the inhibition at 5 ppm [8] was ≤ 30% and the inhibition at 20 ppm [8] was ≤ 30%. The inhibition at 20 ppm [9] was ≤ 30%.
For CCOC(=O)CN(C)C(=O)c1sc(Br)c(Br)c1C [I.056], the chromatographic logP ([5]; method [a]) was 3.23, the pest or weed control at 125 ppm [2] was 80 to 89% and the pest or weed control at 500 ppm [2] was 90 to 100%. The inhibition at 5 ppm [6] was ≤ 30%, the inhibition at 20 ppm [6] was ≤ 30% and the inhibition at 5 ppm [7] was ≤ 30%. For the same molecule, the inhibition at 5 ppm [8] was ≤ 30%, the inhibition at 20 ppm [8] was ≤ 30% and the inhibition at 20 ppm [9] was ≤ 30%.
In the case of CONC(=O)[C@@H](NC(=O)c1sc(Br)c(Br)c1C)C(C)C [I.074, N^2-[(4,5-dibromo-3-methyl-2-thienyl)carbonyl]-N-methoxyvalinamide], the chromatographic logP [5, 11] is reported as 2.77, the fold induction at 300 ppm [10] is reported as > 2 and the inhibition at 5 ppm [6] is reported as ≤ 30%. The inhibition at 20 ppm [6] was ≤ 30%, the inhibition at 5 ppm [7] was ≤ 30% and the inhibition at 20 ppm [7] was ≤ 30%. The inhibition at 5 ppm [8] was ≤ 30%, the inhibition at 20 ppm [8] was ≤ 30% and the inhibition at 20 ppm [9] was ≤ 30%.
For COC(=O)CC[C@H](NC(=O)c1sc(Br)c(Br)c1C)C(=O)OC [I.136], the chromatographic logP ([5]; method [a]) was 3.17, the fold induction at 75 ppm [10] was > 2 and the fold induction at 300 ppm [10] was > 2. It also gave a pest or weed control at 31 ppm [2] of 80 to 89%, a pest or weed control at 125 ppm [2] of 90 to 100% and a pest or weed control at 500 ppm [2] of 90 to 100%. The pest or weed control at 31 ppm [4] was 90 to 100%, the pest or weed control at 125 ppm [4] was 90 to 100% and the pest or weed control at 500 ppm [4] was 90 to 100%. For the same molecule, the inhibition at 5 ppm [6] was ≤ 30%, the inhibition at 20 ppm [6] was ≤ 30% and the inhibition at 5 ppm [7] was ≤ 30%. For the same molecule, the inhibition at 20 ppm [7] was ≤ 30%, the inhibition at 5 ppm [8] was ≤ 30% and the inhibition at 20 ppm [8] was ≤ 30%. The inhibition at 20 ppm [9] was ≤ 30%.
